Assay results reported in PMC12610274, “Identification of Marrubiin as a Cathepsin C Inhibitor for Treating Rheumatoid Arthritis” (Molecules, 2025).

Assays:
[1] = target: T1, CTSK (Homo sapiens, UniProt P43235); test: Human recombinant cathepsins isolated enzyme assay, CTSK; assay type: biochemical; settings: read-out: CTSK Enz (IC50: μM)
T1 construct: purchased R&D Systems
From the text: The protocol for evaluating the inhibitory potency of compounds against other cathepsins referred to the CTSC activity assay. Recombinant human CTSB, CTSL, CTSS and CTSK for testing were also purchased from R&D Systems Biotechnology Company. Recombinant human Cat G, NE, and PR3 For testing were purchased from MedChemExpress. A multi-functional microplate reader was used to measure the absorption of Z-Leu-Arg-AMC at excitation/emission wavelengths of 380/460 nm to assess the activity changes of CTSB and CTSL, while the absorption of MCA-Arg-Pro-Lys-Pro-Val-Glu-NVAL-Trp-Arg-Lys(DNP)-NH2 at 320/405 nm was measured to evaluate the activity changes of CTSS and CTSK. Different assay buffers were prepared for diluting samples and measuring the activities of specific NSPs: a buffer containing 50 mM Tris and 750 mM NaCl (pH 7.4) was used for NE and PR3; a buffer containing 50 mM Tris, 750 mM NaCl, 5 mM EDTA (pH 7.4) was used for Cat G; and a buffer containing 25 mM MES, 50 mM NaCl, 5 mM DTT (pH 6.0) was used for CTSC. Synthetic substrates were employed to assess the activities of NSPs and CTSC: H-Gly-Arg-AMC for CTSC, N-MeSuc-Ala-Ala-Pro-Val-pNA for NE, aminobenzoyl-Val-Ala-Asp-Cys-Ala-Asp-Gln-ethylenediamine 2,4-dinitrophenyl for PR3, and N-Suc-Ala-Ala-Pro-Phe-pNA for Cat G. Each group of tests was independently repeated at least 3 times, and IC50 values were calculated using SPSS 10.0.

[2] = target: T2, intracellular CTSC (Homo sapiens, UniProt P53634); test: CTSC cell-based assay using the U937 cell line; settings: read-out: Cell-Based Enz (IC50: nM)
T2 construct: endogenous in cells; host or cells: U937
Description: Cell-based CTSC enzymatic activity assays were performed in 96-well clear-bottom black microplates. […] The detection substrate, H-Gly-Arg-AFC, was diluted to 100 µM in serum-free medium and stored for later use. U937 cells in the logarithmic growth phase were harvested, washed with PBS, and counted. A single-cell suspension was prepared at a density of 1.0 × 10^6 cells/mL using serum-free medium. 30 µL of cell suspension was seeded into each well of the 96-well plate. To the test wells, 10 µL of the compound working solution was added, while 10 µL of serum-free medium was added to the control wells. The plate was pre-incubated in a cell culture incubator at 37 °C for 3 h. Subsequently, 10 µL of H-Gly-Arg-AFC was added to initiate the enzymatic reaction, and the plate was further incubated at 37 °C for 1 h. Fluorescence measurements were performed using a multimode microplate reader at excitation/emission wavelengths of 400/505 nm. Each group of tests was independently repeated at least 3 times, and IC50 values were calculated using SPSS 10.0.

[3] = Safety evaluation in vivo (body weight, toxic reactions, H&E staining); settings: mice, high-dose group (30 mg/kg)
Description: A total of 25 C57BL/6 mice (6–8 weeks old, weighing approximately 20 g, with equal numbers of males and females) were randomly divided into five groups. Mice in the compound-treated groups were orally administered the compound once daily at doses of 0.3, 3, and 30 mg/kg for 7 consecutive days. […] Mice in the normal group were given an equal volume of normal saline at the same time points. The body weight, death rate, and behavior were observed and recorded daily for one week. After 7 days, bone marrow and blood samples were collected from the mice and lysed using 8% Triton X-100 buffer. The lysates were stored at −20 °C until testing. The activity assays for CTSC and NSPs were performed as described above. The mice were anesthetized and the tissues were taken for H&E staining.

[4] = system: AIA model; test: Adjuvant-induced arthritis (AIA) model, disease severity; assay type: in vivo, Sprague-Dawley rats; settings: rat AIA
Description: Thirty 4-week-old male Sprague-Dawley rats (weighing 120–130 g) were randomly divided into 6 groups (5 rats per group) after 1 week of adaptive feeding, namely the normal group, model group, low-dose experimental group (15 mg/kg), medium-dose experimental group (30 mg/kg), high-dose experimental group (60 mg/kg), and positive control group (30 mg/kg). Starting from Day 0 of the experiment, rats in the administration groups and model group were injected intradermally with 0.1 mL of CFA into the left hind paw to induce AIA, while rats in the normal group were injected intradermally with an equal volume (0.1 mL) of normal saline as a control. After 13 consecutive days of feeding, rats treated with CFA successfully developed typical AIA symptoms. […] During the experiment, the body weight, mental state, activity ability, hair color changes, and paw appearance changes of the rats were observed and recorded daily. In addition, on Day 0 of the experiment (baseline period), the basic paw volume of all rats was accurately measured using a plethysmometer, which served as a reference standard for subsequent evaluation of inflammation severity. From Day 13 to Day 28 of the experiment, the paw volume of the rats was measured repeatedly every 3 days. The degree of paw swelling was quantified by calculating the change in paw volume relative to the baseline. Meanwhile, the arthritis index score was calculated based on the range of paw redness and swelling, the severity of swelling, and the degree of limb movement limitation, so as to comprehensively evaluate the inflammatory state. On Day 28 of the experiment (the end of the administration cycle), blood samples were collected via abdominal aortic puncture. The blood samples were centrifuged at 3000 rpm for 20 min, and the upper serum was collected and stored at −20 °C for subsequent detection. The rats were then sacrificed, and their ankle joint tissues were harvested for subsequent pathological section observation and analysis. The cytokine levels in serum were measured. The activity detection of CTSC and NSPs was carried out according to the above methods.

T2 sequence (P53634 25-463): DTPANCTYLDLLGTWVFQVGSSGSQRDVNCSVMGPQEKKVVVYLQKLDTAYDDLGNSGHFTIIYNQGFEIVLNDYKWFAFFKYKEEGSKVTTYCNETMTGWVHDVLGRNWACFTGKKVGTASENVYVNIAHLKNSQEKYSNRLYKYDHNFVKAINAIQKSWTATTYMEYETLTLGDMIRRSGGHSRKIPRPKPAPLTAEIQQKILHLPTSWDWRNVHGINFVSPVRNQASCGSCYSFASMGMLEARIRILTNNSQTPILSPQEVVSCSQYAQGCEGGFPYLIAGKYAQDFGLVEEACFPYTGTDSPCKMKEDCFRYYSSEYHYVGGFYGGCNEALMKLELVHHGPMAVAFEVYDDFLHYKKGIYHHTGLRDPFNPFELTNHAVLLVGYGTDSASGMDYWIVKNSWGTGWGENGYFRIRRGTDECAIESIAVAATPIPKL
T1 sequence (P43235 115-329): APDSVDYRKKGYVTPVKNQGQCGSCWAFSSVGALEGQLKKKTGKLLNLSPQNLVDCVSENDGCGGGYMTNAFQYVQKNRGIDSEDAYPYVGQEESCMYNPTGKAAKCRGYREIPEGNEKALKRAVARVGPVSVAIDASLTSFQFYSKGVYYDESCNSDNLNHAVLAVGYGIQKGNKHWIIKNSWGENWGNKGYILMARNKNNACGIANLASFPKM

Question: Which results are given for `C[C@@H]1C[C@H]2OC(=O)[C@@]3(C)CCC[C@@](C)([C@@H]23)[C@@]1(O)CCc1ccoc1` [Marrubiin, marrubiin]?
Answer: IC50 [1]: > 5 µM; IC50 [2]: 51.6 ± 3.2 nM; toxic reactions and body weight ([3]; 7-day continuous administration): no toxic reactions or significant weight loss were observed; H&E staining of tissues and organs (heart, liver, spleen, lung, kidney) ([3]; 7 days): No pathological changes; clinical score vs AIA model group ([4]; 60 mg/kg gavage, from day 16 onwards): significantly lower than those of AIA model group; body weight recovery ([4]; 60 mg/kg, from day 16 onwards): most significant weight recovery effects; histopathology of ankle joints (H&E, Safranin O/Fast Green) ([4]; different doses (15, 30, 60 mg/kg)): reduced the histopathological statement; volume and thickness of inflamed paws ([4]; different doses (15, 30, 60 mg/kg), days 16 to 28): continuous reduction in volume and a gradual decrease in thickness
